# Results reported in PubChem BioAssay (NCI).
# Values joined by “and” are separate entries in the source; they are usually repeats but may differ in a detail not shown here. Equal values may be shown once.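 The compound was tested at five concentrations on cells cultured in 96-well plates, with a 48-hour exposure period. Here, GI50 denotes the concentration required for 50% inhibition of growth. The concentration for full growth arrest is given as TGI.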
# Tested on: OVCAR-4 ovarian
# Test: NCI anticancer screen, dose series, 48 h
Structure (SMILES),TGI,GI50 [µM]
O=C1c2ccccc2C2(Br)C(=O)c3ccccc3C12 (stereo not given),> 100 µM,–
CCN1CCN(c2ccc(Nc3cc(N(C)C(=O)Nc4c(Cl)c(OC)cc(OC)c4Cl)ncn3)cc2)CC1,12.1 µM,0.851
CCOC(=O)Oc1c(OC)cc(C(=O)NC2CCc3cc(OC)c(OC)c(OC)c3-c3ccc(SC)c(=O)cc32)cc1OC (stereo not given),> 70 µM,14.8
COC(=O)c1cc2c(cc1O)[C@@H](NC(C)=O)CCc1cc(OC)c(OC)c(OC)c1-2,> 100 µM,1.06
CC(C)(C)[SiH]12(OC(C(F)(F)F)(C(F)(F)F)c3ccccc31)OC(C(F)(F)F)(C(F)(F)F)c1ccccc12,19.7 µM,–
CSc1nc2c(nc(C)c(=O)n2C2OCC(OC(C)=O)C(OC(C)=O)C2OC(C)=O)c(=O)[nH]1 (stereo not given),> 100 µM,–
O=S(O)CCCCSSCC(O)C(O)CSSCCCCS(=O)O (stereo not given),19.9 µM and 23.8 µM,–
O=C1OC(c2ccccc2)=N/C1=C/C=C/c1ccco1,> 100 µM,–
CC1OC2CC(=O)OC2C2=C1C(=O)c1c(O)cccc1C2=O (stereo not given),0.253 µM,0.113
CCC[CH2][Sn]([CH2]CCC)([CH2]CCC)[O]C(=O)CC,0.26 µM,0.125
C=C(C)[C@@]12OC3(/C=C/C=C/CCCCC)O[C@@H]1[C@@H]1[C@@H]4O[C@]4(CO)[C@@H](O)[C@]4(O)C(=O)C(C)=C[C@H]4[C@@]1(O3)[C@H](C)[C@H]2OC(=O)c1ccccc1,3.82 µM,1.91

# Tested on: K-562 leukemia
# Test: NCI anticancer screen, dose series, 48 h
Structure (SMILES),TGI,GI50 [µM]
O=[n+]1c2c(n([O-])c3ccccc31)CCCCCCCCCC2,> 100 µM,–
O=C(OCc1ccc2cccc(O)c2n1)N1CCN(C(=O)c2cc3cc(F)ccc3[nH]2)CC1,2.4 µM,0.435
C=C(F)C(=O)N1CCN(c2nc(OC[C@@H]3CCCN3C)nc3c2CCN(c2cccc4cccc(Cl)c24)C3)C[C@@H]1CC#N,1.84 µM,0.421
Cc1c2cccnc2c(C)c2c1c1cc(CO)ccc1n2C,20.6 µM,1.66
CCCCN(CCCC)CC(C(=O)Nc1ccc([N+](=O)[O-])cc1[N+](=O)[O-])/C(C)=N\NC(=S)NN (stereo not given),> 100 µM,–
S=C(N/N=C/c1ccco1)NC12CC3CC(CC(C3)C1)C2,> 100 µM,–
CS(=O)(=O)N/N=C/CN1C(=O)c2ccccc2C1=O,> 100 µM,–
Ic1ccc(Nc2nc3nonc3nc2Nc2ccc(I)cc2)cc1,> 100 µM,0.091
CC(SC(C)C(=O)N/N=C/c1cccc(Cl)c1)C(=O)N/N=C\c1cccc(Cl)c1 (stereo not given),> 100 µM,31.6
CCOC(=O)/C=C/C(C(=O)/C=C/c1ccc(OC2CCCCO2)c(OC)c1)=C(O)\C=C\c1ccc(OC2CCCCO2)c(OC)c1 (stereo not given),75 µM,2.62
O=C1c2ccccc2C2(Br)C(=O)c3ccccc3C12 (stereo not given),> 100 µM,–
CCN1CCN(c2ccc(Nc3cc(N(C)C(=O)Nc4c(Cl)c(OC)cc(OC)c4Cl)ncn3)cc2)CC1,5.5 µM,2.09
CCOC(=O)Oc1c(OC)cc(C(=O)NC2CCc3cc(OC)c(OC)c(OC)c3-c3ccc(SC)c(=O)cc32)cc1OC (stereo not given),0.774 µM,–
COC(=O)c1cc2c(cc1O)[C@@H](NC(C)=O)CCc1cc(OC)c(OC)c(OC)c1-2,> 100 µM,0.0246
CC(C)(C)OC(=O)NCC(=O)OCc1ccccc1,> 100 µM,–
CC(C)(C)[SiH]12(OC(C(F)(F)F)(C(F)(F)F)c3ccccc31)OC(C(F)(F)F)(C(F)(F)F)c1ccccc12,18.2 µM,–
CSc1nc2c(nc(C)c(=O)n2C2OCC(OC(C)=O)C(OC(C)=O)C2OC(C)=O)c(=O)[nH]1 (stereo not given),> 100 µM,–
O=S(O)CCCCSSCC(O)C(O)CSSCCCCS(=O)O (stereo not given),60.6 µM and > 100 µM,–
O=C1OC(c2ccccc2)=N/C1=C/C=C/c1ccco1,> 100 µM,–
CC1OC2CC(=O)OC2C2=C1C(=O)c1c(O)cccc1C2=O (stereo not given),> 100 µM,0.0298
CCC[CH2][Sn]([CH2]CCC)([CH2]CCC)[O]C(=O)CC,–,0.237
C=C(C)[C@@]12OC3(/C=C/C=C/CCCCC)O[C@@H]1[C@@H]1[C@@H]4O[C@]4(CO)[C@@H](O)[C@]4(O)C(=O)C(C)=C[C@H]4[C@@]1(O3)[C@H](C)[C@H]2OC(=O)c1ccccc1,1.87 µM,< 0.01
C/C(=C\CCc1ccoc1)CC/C=C(\C)CCCC1=CC(=O)OC1,> 100 µM,4.8

# Tested on: SK-OV-3 ovarian
# Test: NCI anticancer screen, dose series, 48 h
Structure (SMILES),TGI,GI50
O=[n+]1c2c(n([O-])c3ccccc31)CCCCCCCCCC2,> 100 µM,–
O=C(OCc1ccc2cccc(O)c2n1)N1CCN(C(=O)c2cc3cc(F)ccc3[nH]2)CC1,11.9 µM,2.77 µM
OCCN1CN(CCO)CN(c2nc(N3CN(CCO)CN(CCO)C3)nc(N3CN(CCO)CN(CCO)C3)n2)C1,4.64 ng/mL,1.39 ng/mL
C=C(F)C(=O)N1CCN(c2nc(OC[C@@H]3CCCN3C)nc3c2CCN(c2cccc4cccc(Cl)c24)C3)C[C@@H]1CC#N,4.94 µM,2.17 µM
Cc1c2cccnc2c(C)c2c1c1cc(CO)ccc1n2C,6.95 µM,2.14 µM
CCCCN(CCCC)CC(C(=O)Nc1ccc([N+](=O)[O-])cc1[N+](=O)[O-])/C(C)=N\NC(=S)NN (stereo not given),> 100 µM,–
S=C(N/N=C/c1ccco1)NC12CC3CC(CC(C3)C1)C2,> 100 µM,–
CS(=O)(=O)N/N=C/CN1C(=O)c2ccccc2C1=O,> 100 µM,–
Ic1ccc(Nc2nc3nonc3nc2Nc2ccc(I)cc2)cc1,0.741 µM,0.23 µM
CC(SC(C)C(=O)N/N=C/c1cccc(Cl)c1)C(=O)N/N=C\c1cccc(Cl)c1 (stereo not given),31.2 µM,13 µM
CCOC(=O)/C=C/C(C(=O)/C=C/c1ccc(OC2CCCCO2)c(OC)c1)=C(O)\C=C\c1ccc(OC2CCCCO2)c(OC)c1 (stereo not given),> 100 µM,23.1 µM
O=C1c2ccccc2C2(Br)C(=O)c3ccccc3C12 (stereo not given),> 100 µM,–
CCN1CCN(c2ccc(Nc3cc(N(C)C(=O)Nc4c(Cl)c(OC)cc(OC)c4Cl)ncn3)cc2)CC1,20.8 µM,8.02 µM
CCOC(=O)Oc1c(OC)cc(C(=O)NC2CCc3cc(OC)c(OC)c(OC)c3-c3ccc(SC)c(=O)cc32)cc1OC (stereo not given),0.466 µM and 0.0553 µM,0.00717 µM
COC(=O)c1cc2c(cc1O)[C@@H](NC(C)=O)CCc1cc(OC)c(OC)c(OC)c1-2,> 100 µM,0.0831 µM
CC(C)(C)OC(=O)NCC(=O)OCc1ccccc1,> 100 µM,–
CSc1nc2c(nc(C)c(=O)n2C2OCC(OC(C)=O)C(OC(C)=O)C2OC(C)=O)c(=O)[nH]1 (stereo not given),> 100 µM,–
O=S(O)CCCCSSCC(O)C(O)CSSCCCCS(=O)O (stereo not given),> 100 µM,–
O=C1OC(c2ccccc2)=N/C1=C/C=C/c1ccco1,> 100 µM,–
